The first assay concerns the target T1, human recombinant Btk (Homo sapiens (Human), UniProt Q06187).
Test: not given
As to conditions: Caliper-based kinase assay; human recombinant Btk 2 nM, ATP 40 μM, peptide substrate 1 μM, room temperature 3 h.
T1 sequence (Q06187 whole entry): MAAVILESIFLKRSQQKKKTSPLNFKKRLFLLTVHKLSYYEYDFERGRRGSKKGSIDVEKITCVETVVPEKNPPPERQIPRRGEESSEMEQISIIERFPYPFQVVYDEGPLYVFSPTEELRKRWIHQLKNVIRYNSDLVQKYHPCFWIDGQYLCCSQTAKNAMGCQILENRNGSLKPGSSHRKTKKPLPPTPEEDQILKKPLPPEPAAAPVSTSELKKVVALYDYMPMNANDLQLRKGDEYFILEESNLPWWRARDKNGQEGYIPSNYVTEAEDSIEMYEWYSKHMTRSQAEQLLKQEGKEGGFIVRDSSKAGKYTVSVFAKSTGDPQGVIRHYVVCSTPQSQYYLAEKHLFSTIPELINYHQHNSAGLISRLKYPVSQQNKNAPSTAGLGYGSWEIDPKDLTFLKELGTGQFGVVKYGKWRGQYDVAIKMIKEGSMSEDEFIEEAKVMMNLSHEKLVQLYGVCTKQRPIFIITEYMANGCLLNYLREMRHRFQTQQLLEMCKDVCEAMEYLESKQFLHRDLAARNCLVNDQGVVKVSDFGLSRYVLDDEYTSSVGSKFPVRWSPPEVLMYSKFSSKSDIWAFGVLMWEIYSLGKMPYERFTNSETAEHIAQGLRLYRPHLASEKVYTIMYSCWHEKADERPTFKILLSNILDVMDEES
In general, IC50 refers to the concentration that gives 50% inhibition. On to `CCNC(C)(C)C=C(C#N)C(=O)N1CCCC1Cn1nc(-c2ccc(Oc3ccccc3)cc2F)c2c(N)ncnc21` (stereo in doubt) [Example 85A, (S)-2-(2-((4-amino-3-(2-fluoro-4-phenoxyphenyl)-1H-pyrazolo[3,4-d]pyrimidin-1-yl)methyl)pyrrolidine-1-carbonyl)-4-(ethylamino)-4-methylpent-2-enenitrile], for which the IC50 came out at 0.4 nM. Turning to `CCNC(C)(C)C=C(C#N)C(=O)N1CCCC1Cn1nc(-c2ccc(Oc3ccccc3)cc2F)c2c(N)ncnc21` (stereo in doubt) [Example 85B, (R)-2-(2-((4-amino-3-(2-fluoro-4-phenoxyphenyl)-1H-pyrazolo[3,4-d]pyrimidin-1-yl)methyl)pyrrolidine-1-carbonyl)-4-(ethylamino)-4-methylpent-2-enenitrile], the IC50 amounted to 17.2 nM. `CC(C)(C)C=C(C#N)C(=O)NC1CCC(n2nc(-c3ccc(NC(=O)c4ccc(C(F)(F)F)cc4)cc3)c3c(N)ncnc32)CC1` (centres unmarked) [8 (Cpd Table 2), N-(4-(4-amino-1-((1r,4r)-4-(2-cyano-4,4-dimethylpent-2-enamido)cyclohexyl)-1H-pyrazolo[3,4-d]pyrimidin-3-yl)phenyl)-4-(trifluoromethyl)benzamide]: the IC50 is above 1000 nM. Consider `CC(C)(C)C=C(C#N)C(=O)NC1CCC(n2nc(-c3ccc(NC(=O)c4ccc(C(F)(F)F)cc4)cc3)c3c(N)ncnc32)CC1` (centres unmarked) [10 (Cpd Table 2), N-(4-(4-amino-1-((1s,4s)-4-(2-cyano-4,4-dimethylpent-2-enamido)cyclohexyl)-1H-pyrazolo[3,4-d]pyrimidin-3-yl)phenyl)-4-(trifluoromethyl)benzamide], for which the IC50 is above 1000 nM.

Regarding `NC(=O)C(=CC1CC1)C(=O)N1CCC[C@@H](n2nc(-c3ccc(Oc4cccc(F)c4)cc3)c3c(N)ncnc32)C1` [Example 15A, (R)-2-(3-(4-amino-3-(4-(3-fluorophenoxy)phenyl)-1H-pyrazolo[3,4-d]pyrimidin-1-yl)piperidine-1-carbonyl)-3-cyclopropylacrylamide], the IC50 is 1.7 nM. As to `N#CC(=CC1CC1)C(=O)N1CCCC1Cn1nc(-c2ccc(Oc3ccccc3)cc2)c2c(N)ncnc21` (centres unmarked) [Example 22B], the IC50 turned out to be 2.6 nM. Same read-out and setting: then `N#CC(=CC1CC1)C(=O)N1CCC[C@@H]1Cn1nc(-c2ccc(Oc3cccc(F)c3)cc2)c2c(N)ncnc21` [Example 24A, (R)-2-(2-((4-amino-3-(4-(3-fluorophenoxy)phenyl)-1H-pyrazolo[3,4-d]pyrimidin-1-yl)methyl)pyrrolidine-1-carbonyl)-3-cyclopropylacrylonitrile], with 6.2 nM; and `NC(=O)C(=CC1CC1)C(=O)N1CCC[C@@H](n2nc(-c3ccc(Oc4c(F)cccc4F)cc3)c3c(N)ncnc32)C1` [Example 36A, (R)-2-(3-(4-amino-3-(4-(2,6-difluorophenoxy)phenyl)-1H-pyrazolo[3,4-d]pyrimidin-1-yl)piperidine-1-carbonyl)-3 cyclopropylacrylamide], with 4.3 nM. The same measure, in the same setting: then `N#CC(=CC1CC1)C(=O)N1CCC[C@H]1Cn1cc(-c2ccc(Oc3ccccc3)cc2F)c2c(N)ncnc21` [Example 59B, (S)-2-(2-((4-amino-5-(2-fluoro-4-phenoxyphenyl)-7H-pyrrolo[2,3-d]pyrimidin-7-yl)methyl)pyrrolidine-1-carbonyl)-3-cyclopropylacrylonitrile], with 26 nM; and `CC(C)(CNC(=O)C(C#N)=CC1CC1)Cn1nc(-c2ccc(Oc3ccccc3)cc2)c2c(N)ncnc21` [Example 67, N-(3-(4-amino-3-(4-phenoxyphenyl)-1H-pyrazolo[3,4-d]pyrimidin-1-yl)-2,2-dimethylpropyl)-2-cyano-3-cyclopropylacrylamide], with 27 nM; and `CC(C)(N)C=C(C#N)C(=O)N1CCC[C@H]1Cn1nc(-c2ccc(Oc3cccc(F)c3)cc2F)c2c(N)ncnc21` [Example 72B, (S)-4-amino-2-(2-((4-amino-3-(2-fluoro-4-(3-fluorophenoxy)phenyl)-1H-pyrazolo[3,4-d]pyrimidin-1-yl)methyl)pyrrolidine-1-carbonyl)-4-methylpent-2-enenitrile], with 28 nM. On the same count and under the same terms, then `CCOC(C)(C)C=C(C#N)C(=O)N1CCC[C@@H](n2nc(-c3ccc(Oc4cccc(F)c4F)cc3F)c3c(N)ncnc32)C1` [Example 156A, (R)-2-(3-(4-amino-3-(4-(2,3-difluorophenoxy)-2-fluorophenyl)-1H-pyrazolo[3,4-d]pyrimidin-1-yl)piperidine-1-carbonyl)-4-ethoxy-4-methylpent-2-enenitrile], with 7.3 nM; and `CC(C)(C=C(C#N)C(=O)N1CCC[C@@H](n2nc(-c3ccc(Oc4cccc(F)c4F)cc3F)c3c(N)ncnc32)C1)N1CCOCC1` [Example 162A, (R)-2-(3-(4-amino-3-(4-(2,3-difluorophenoxy)-2-fluorophenyl)-1H-pyrazolo[3,4-d]pyrimidin-1-yl)piperidine-1-carbonyl)-4-methyl-4-morpholinopent-2-enenitrile], with 0.9 nM; and `CC(C)(C)C=C(C#N)C(=O)N1CCC[C@@H]1Cn1cc(-c2ccc(Oc3cccc(F)c3F)cc2)c2c(N)ncnc21` [Example 173B], with 34 nM. Take `CC1(C=C(C#N)C(=O)N2CCC[C@H]2Cn2nc(-c3ccc(Oc4ccccc4)cc3F)c3c(N)ncnc32)COC1` [Example 197B]: the IC50 was 32.5 nM.

The target in a further assay is T1, human recombinant Btk. Nature of the assay: biochemical.
Settings: not given
Take `CC(C)(C)C=C(C#N)C(=O)N1CCC[C@@H](n2nc(-c3ccc(Oc4ccccc4)cc3)c3c(N)ncnc32)C1` [29 A, (R)-2-(3-(4-amino-3-(4-phenoxyphenyl)-1H-pyrazolo[3,4-d]pyrimidin-1-yl)piperidine-1-carbonyl)-4,4-dimethylpent-2-enenitrile]: the IC50 is 2.7 nM. On to `N#CC(=CC1CC1)C(=O)N1CCC[C@@H]1Cn1nc(-c2ccc(Oc3cc(F)cc(F)c3)cc2)c2c(N)ncnc21` [Example 25A, (R)-2-(2-((4-amino-3-(4-(3,5-difluorophenoxy)phenyl)-1H-pyrazolo[3,4-d]pyrimidin-1-yl)methyl)pyrrolidine-1-carbonyl)-3-cyclopropylacrylonitrile], for which the IC50 amounted to 9.6 nM. As to `N#CC(=CC1CC1)C(=O)N1CCC[C@H]1Cn1nc(-c2ccc(Oc3cc(F)cc(F)c3)cc2)c2c(N)ncnc21` [Example 25B, (S)-2-(2-((4-amino-3-(4-(3,5-difluorophenoxy)phenyl)-1H-pyrazolo[3,4-d]pyrimidin-1-yl)methyl)pyrrolidine-1-carbonyl)-3-cyclopropylacrylonitrile], the IC50 was 140 nM.

Consider `N#CC(=CC1CC1)C(=O)N1CCC[C@@H]1Cn1nc(-c2ccc(Oc3c(F)cccc3F)cc2)c2c(N)ncnc21` [Example 32A, (R)-2-(2-((4-amino-3-(4-(2,6-difluorophenoxy)phenyl)-1H-pyrazolo[3,4-d]pyrimidin-1-yl)methyl)pyrrolidine-1-carbonyl)-3-cyclopropylacrylonitrile], for which the IC50 turned out to be 1.7 nM. As for `N#CC(=CC1CC1)C(=O)N1CCC[C@@H]1Cn1nc(-c2ccc(Oc3cc(F)cc(F)c3)cc2F)c2c(N)ncnc21` [Example 41A, (R)-2-(2-((4-amino-3-(2-fluoro-4-(3,5-difluorophenoxy)phenyl)-1H-pyrazolo[3,4-d]pyrimidin-1-yl)methyl)pyrrolidine-1-carbonyl)-3-cyclopropylacrylonitrile], the IC50 is 3.2 nM.

Source of the values: US9090621B2, “Tyrosine kinase inhibitors” (Principia Biopharma Inc., priority 2013, dated 2015).
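Further: Read-out is the quantity of phosphorylated substrate product formed, and IC50 reflects inhibition of Btk kinase activity.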
